Where a name gives a salt, the structure may show the parent alone. Read-outs that look alike come from different tables or passages of the source.
How the values were obtained:
BV/shenzhen/155/2005 = experiment: CPE assay in MDCK cells; type: cell-based, influenza B virus; details: for IC50: Influenza B virus, CPE, MDCK cells; for SI: TC50/IC50
BY/fujianxinluo/54/2006 = experiment: CPE assay in MDCK cells; type: cell-based, influenza B virus; details: for IC50: Influenza B virus, CPE, MDCK cells; for SI: TC50/IC50
A/wuhan/359/1995 = experiment: CPE assay in MDCK cells; type: cell-based, Influenza A virus (H3N2); details: for IC50: Influenza A virus, CPE, MDCK cells; for SI: TC50/IC50
A/FortMonmouth/1/1947 = experiment: CPE assay in MDCK cells; type: cell-based, Influenza A virus (H1N1); details: for IC50: Influenza A virus, CPE, MDCK cells; for SI: TC50/IC50
[1] = in vivo; cited from earlier work
viral hemagglutinin = tested on: viral hemagglutinin; design: species or system Influenza A virus; details: maximum concentration 40 μM, 10-fold dilutions; Fig. 2b
Description: Briefly, the diluted IAV were mixed with diluted compounds in a U bottom 96-well plate. After incubation at 4 °C for 40 min, equal volume of 1.2% chicken erythrocyte suspension was added to each well. Then, the erythrocyte aggregation was evaluated by visual inspection after 40 min [17, 18].

MDCK cells = details: dog, 48 h
[2] = In vivo toxicity, body weight in mice; design: species or system female Kun Ming mice; details: 100 mg/kg by oral administration in mice
Description: To determine the in vivo toxicity of N30 preliminarily, female Kun Ming mice were gavaged 100 mg/kg and 50 mg/kg N30 twice a day. Six mice enrolled in each group were gavaged with N30 or vehicle for continuous administration for 14 days, then weighted at day 0, 5, 10 and 14 respectively, shown in Table 5.

NA of IAV A/FM1/1947 = experiment: NA inhibition assay (MUNANA); type: biochemical, Influenza A virus; details: Fig. 2a
CVB2 (strain Ohio-1) = experiment: CPE assay; type: cell-based, Coxsackie virus B; details: for IC50: Enterovirus B, CVB2, Ohio-1, CPE
EV71(BrCr) = experiment: CPE assay; type: cell-based, Human enterovirus 71; details: for IC50: Enterovirus A, EV71, CPE; for SI: TC50/IC50
CVB6 (strain Schmitt) = experiment: CPE assay; type: cell-based, Coxsackie virus B; details: for IC50: CPE
CVB5 (strain Faulkner) = experiment: CPE assay; type: cell-based, Coxsackie virus B; details: for IC50: Enterovirus B, CVB5, CPE
[3] = tested on: IAV A/Fort Monmouth/1/1947 (H1N1); experiment: IAV M2 protein and RNA expression in MDCK cells (western blot, qRT-PCR); type: cell-based, Influenza A virus (H1N1); details: 0.01 MOI, 24 h post-infection, Fig. 1c and d
Description: Fig. 1 Effects of N30 on IAV M2 protein and RNA expression in MDCK. a Chemical structure of N30. b The effect of N30 on viabilities of MRC-5, Vero, MDCK and Hep2 cells, which were measured by CCK. c The effect of N30 with different concentrations on IAV M2 protein and RNA expression. d The effect of N30 on IAV M2 protein and RNA expression compared with reference drugs. MDCK cells were infected with IAV A/Fort Monmouth/1/1947(H1N1) (0.01 multiplicity of infection [MOI, plaque-forming units (PFU)/cell]) for 2 hours, and treated with different concentrations of N30 or reference drugs for 24 h. Total mRNA and protein were extracted at 24 h post-infection, and analyzed by qRT-PCR and Western blotting respectively. […]
Cells were collected at 24 h post-infection and lysed in M-PER mammalian protein extraction reagent containing halt protease inhibitor cocktail (Thermo Fisher Scientific), sample proteins were subjected to SDS-PAGE and transferred to PVDF membrane (Millipore). After blocked with 5% milk, the membranes were incubated with antibodies against Influenza M2, β-actin (Santa Cruz), CVB3 VP1 (Millipore), IMPDH type II (Sigma-Aldrich), RSV M2 (Santa Cruz) and coronavirus (FIPV-70, Santa Cruz) respectively, then, the HRP-conjugated secondary antibodies were incubated and the signals were detected using an enhanced chemiluminescence (ECL) kit (GE Healthcare Life Sciences). […]

IMPDH type II [4] = molecular target: T1, IMPDH type II (Homo sapiens, UniProt P12268); experiment: Enzymatic assay of IMPDH type II; type: biochemical; details: after N30 treatment; Fig. 3b
T1 construct: purchased Sigma-Aldrich
Description: The enzymatic assay was employed to evaluate the inhibitory effect of N30 on the activity of IMPDH type II by following the increase in formation of nicotinamide-adenine dinucleotide (NADH), which absorbance was read at 340 nm on Enspire at 30 °C. The 200 μL assay buffer contained 1 M Tris/HCl (pH 8.8), 1 M KCl, 30 mM EDTA, 10 μL IMPDH type II (Sigma-Aldrich), 1 mM DTT and NAD (Sigma-Aldrich). The reaction was started after addition of IMP, with final concentrations was 1 mM [19].

Vero cells [5] = details: African green monkey, 48 h
RSV = type: cell-based, respiratory syncytial virus (long strain)
IAV = details: in vitro, at low micromolar concentrations; cited from earlier work
CVB3 (strain Nancy) = experiment: CPE assay; type: cell-based, Coxsackie virus B; details: for IC50: Enterovirus B, CVB3, CPE
IMPDH type II [6] = experiment: IMPDH type II expression by western blot in MDCK cells; type: cell-based, canine; details: 24 h treatment, Fig. 3a
CVB1 (strain Conn-5) = experiment: CPE assay; type: cell-based, Coxsackie virus B; details: for IC50: Enterovirus B, CVB1, CPE
CVB4 (strain J.V.B.) = experiment: CPE assay; type: cell-based, Coxsackie virus B; details: for IC50: Enterovirus B, CVB4, CPE
EV71(SZ98) = experiment: CPE assay; type: cell-based, Human enterovirus 71; details: for IC50: Enterovirus A, EV71, CPE; for SI: TC50/IC50
Vero cells [7] = experiment: Cytotoxicity test (CCK); details: 50% toxicity concentration
[8] = human, in vivo, cited from earlier work

NC12CC3CC(CC(C3)C1)C2 [AH, amantadine hydrochloride]
IC50 (BV/shenzhen/155/2005): > 200000 nM | IC50 (BY/fujianxinluo/54/2006): > 200000 nM | IC50 (A/wuhan/359/1995): 15.6 ± 0.31 µM | IC50 (A/FortMonmouth/1/1947): 650 ± 590 nM

COc1c(C)c2c(c(O)c1C/C=C(\C)CCC(=O)OCCN1CCOCC1)C(=O)OC2 [MMF, mycophenolate mofetil]
side effects [1]: diarrhea, leucopenia, sepsis, and vomiting

O=[N+]([O-])c1ccc(CNc2ccc3ncsc3c2)cc1 [N30, N-(4-nitrophenylmethyl) benzothiazole-6-amine]
hemagglutination inhibition (aggregation of chicken erythrocytes) (viral hemagglutinin): could not inhibit the aggregation of chicken erythrocytes | TC50 (MDCK cells): 66.67 µM | acute toxicity [2]: little acute toxicity | IC50 (BV/shenzhen/155/2005): 1160 ± 690 nM | SI (BV/shenzhen/155/2005): 57.47 | effect on NA activity (NA of IAV A/FM1/1947): little inhibitory effect | IC50 (CVB2 (strain Ohio-1)): 0.0116 ± 0.00294 mM | SI (CVB2 (strain Ohio-1); TC50/IC50): 7.69 | IC50 (EV71(BrCr)): 8.04 ± 3.77 µM | SI (EV71(BrCr)): 11.14 | SI (CVB6 (strain Schmitt)): 13.15 | IC50 (CVB6 (strain Schmitt)): 0.00681 ± 0.00189 mM | IC50 (CVB5 (strain Faulkner)): 2.54 ± 1.43 µM | SI (CVB5 (strain Faulkner); TC50/IC50): 35.26 | IC50 (BY/fujianxinluo/54/2006): 700 ± 180 nM | SI (BY/fujianxinluo/54/2006): 95.24 | amounts of IAV M2 protein and RNA [3]: dosage dependent relationship | reduction of the enzymatic reaction rate of IMPDH (IMPDH type II [4]): 38.18% | TC50 (Vero cells [5]): 89.56 ± 4.25 µM | expression of the viral proteins (RSV; 10 μM N30, RSV-infected Hep2 cells): almost completely inhibit | RSV M2 mRNA and protein expressions (RSV; RSV-infected Hep2 cells, 0.025 MOI, 24 h, Fig. 4b): markedly decreased | IC50 (A/wuhan/359/1995): 1.31 ± 0.87 µM | SI (A/wuhan/359/1995): 50.89 | activity towards IAV (IAV): potent activity | IC50 (CVB3 (strain Nancy)): 0.00182 ± 0.00276 mM | SI (CVB3 (strain Nancy); TC50/IC50): 49.21 | IMPDH expression (IMPDH type II [6]): have not been lessened | IC50 (CVB1 (strain Conn-5)): 0.00628 ± 0.00161 mM | SI (CVB1 (strain Conn-5); TC50/IC50): 14.26 | IC50 (CVB4 (strain J.V.B.)): 0.0104 ± 0.00313 mM | SI (CVB4 (strain J.V.B.); TC50/IC50): 8.64 | IC50 (EV71(SZ98)): 10.6 ± 3.76 µM | SI (EV71(SZ98)): 8.42 | IC50 (A/FortMonmouth/1/1947): 1930 ± 160 nM | SI (A/FortMonmouth/1/1947): 34.54

CCC(CC)O[C@@H]1C=C(C(=O)O)C[C@H](N)[C@H]1NC(C)=O [OC, oseltamivir carboxylate]
hemagglutination inhibition (aggregation of chicken erythrocytes) (viral hemagglutinin): did not show the inhibitory effect | TC50 (MDCK cells): > 50 µM | IC50 (BV/shenzhen/155/2005): 1020 ± 80 nM | SI (BV/shenzhen/155/2005): >49.02 | effect on NA activity (NA of IAV A/FM1/1947): significantly reduce the activity of NA in a dose dependent manner | IC50 (BY/fujianxinluo/54/2006): 560 ± 20 nM | SI (BY/fujianxinluo/54/2006): >89.28 | IC50 (A/wuhan/359/1995): 0.12 ± 0.01 µM | SI (A/wuhan/359/1995): >416.67 | IC50 (A/FortMonmouth/1/1947): 250 ± 10 nM | SI (A/FortMonmouth/1/1947): >200

CCOC(=O)c1ccc(OCCC2CCN(c3ccc(C)nn3)CC2)cc1 [Pirodavir]
TC50 (Vero cells [7]; Tables 3 and 4, CCK, 48 h): 0.03257 ± 0.00055 mM | IC50 (EV71(BrCr)): 0.16 µM | SI (EV71(BrCr)): 203.56 | IC50 (EV71(SZ98)): 0.27 ± 0.27 µM | SI (EV71(SZ98)): 120.6

NC(=O)c1ncn([C@@H]2O[C@H](CO)[C@@H](O)[C@H]2O)n1 [RBV, Ribavirin]
hemagglutination inhibition (aggregation of chicken erythrocytes) (viral hemagglutinin): did not show the inhibitory effect | IC50 (BV/shenzhen/155/2005): 1700 ± 570 nM | TC50 (Vero cells [7]; Table 3): >20.00 mM | IC50 (CVB2 (strain Ohio-1)): 2.27 ± 0.18 mM | IC50 (CVB6 (strain Schmitt)): 4.56 ± 2.41 mM | IC50 (CVB5 (strain Faulkner)): 1200 ± 530 µM | bilirubin values ([8]; po): elevated the bilirubin values | anemia [8]: transient anemia | IC50 (BY/fujianxinluo/54/2006): 2480 ± 530 nM | IC50 (A/wuhan/359/1995): 8.23 ± 6.31 µM | IC50 (CVB3 (strain Nancy)): 3.13 ± 1.21 mM | IMPDH expression (IMPDH type II [6]): no inhibition | IC50 (CVB1 (strain Conn-5)): 2.37 ± 0.36 mM | IC50 (CVB4 (strain J.V.B.)): 2.47 ± 1.6 mM | IC50 (A/FortMonmouth/1/1947): 1640 ± 720 nM

Reference: article PMC5353780, “A novel benzo-heterocyclic amine derivative N30 inhibits influenza virus replication by depression of Inosine-5’-Monophospate Dehydrogenase activity” (Virology Journal, 2017)
